Test results reported in patent publication US5665760A, “Lyophilized thioxanthenone antitumor agents” (priority 1995, dated 1997).
Structures can show the parent of a compound that is named as a salt.

Tests used:
colon adenocarcinoma #38 = assay: antitumor activity in mice against colon adenocarcinoma #38; assay type: in vivo
Experimental: (§1) Representative examples of the invention were tested for antitumor activity in mice according to the following procedure:
(§2) The animals were pooled, implanted subcutaneously with 30 to 60 mg tumor fragments by 12-gauge trocar, and again pooled before unselective distribution to the various treatment and control groups. For early-stage treatment, chemotherapy was started within 1 to 5 days after tumor implantation while the number of cells was relatively small (10^7 to 10^8 cells). For advanced-stage treatment, chemotherapy was delayed until the tumor became relatively large (200 to 300 mg in size). A 300-mg tumor contains approximately 3×10^8 total cells. […] Tumors were measured with a caliper weekly (or twice weekly for the more rapidly growing tumors). Mice were sacrificed when their tumors reached 1500 mg (i.e., before they can cause the animal discomfort). Tumor weights were estimated from two-dimensional measurements.
(§3) The treatment and control groups were measured when the control group tumors reached approximately 700 to 1200 mg in size (Median of Group). The median tumor weight of each group was determined (including zeros). […] A T/C value <10% is considered to indicate highly significant antitumor activity.
(§4) The results are shown in Table I for pancreatic ductal adenocarcinoma #03 and in Table 2 for colon adenocarcinoma #38.

[1] = tested on: pancreatic ductal adenocarcinoma #03; assay: antitumor activity in mice against pancreatic ductal adenocarcinoma #03 (Panc 03); assay type: in vivo
Experimental: as §1, §2, §3, §4

[2] = Table 2, i.v., total dose mg/kg by Example: 2:600, 5:960, 6:132, 7:840, 16(a):1000, 18(e):180
[3] = Table 2, i.v., total dose mg/kg by Example: 6:82, 16(a):690, 18(e):120
[4] = Table 1, average body weight 25 g, total doses as in E1
[5] = Table 2, i.p., total dose mg/kg by Example: 10:340, 11:518
[6] = Table 2, p.o., total dose mg/kg by Example: 10:460, 11:885
[7] = Table 2, p.o., total dose mg/kg by Example: 10:740, 11:1709

## CCN(CC)CCNc1ccc(CNC(=O)C(F)(F)F)c2sc3ccccc3c(=O)c12 [16(a), N-[[1-[[2-(Diethylamino)ethyl]amino]-9-oxothioxanthen-4-yl]methyl]-trifluoroacetamide]
Colon adenocarcinoma #38; [2]
  Drug Deaths: 0
Colon adenocarcinoma #38; [3]
  Drug Deaths: 0
  Weight Loss: 1.5 g
Colon adenocarcinoma #38; mouse, in vivo, iv
  Weight Loss: 1.2 g
[1]
  T/C: 21%
[1]; [4]
  Weight Loss: +0.8 g
[1]; Table 1, total doses as in E1
  Drug Deaths: 0

## CCN(CC)CCCNc1ccc(CNC)c2sc3ccccc3c(=O)c12 [17(f), 1-[[3-(Diethylamino)propyl]amino]-4-(methylaminomethyl)thioxanthen-9-one dihydrochloride 3/2 hydrate]
[1]
  T/C: 17%
[1]; Table 1, total doses as in E1
  Drug Deaths: 0
[1]; mouse, in vivo
  Weight Loss: 2.0 g

## CN(C)CCNc1ccc(CN)c2sc3ccccc3c(=O)c12 [18(e), 4-(Aminomethyl)-l-[[2-dimethylamino)ethyl]amino]-9-oxothioxanthen-9-one dihydrochloride·1/2 hydrate]
Colon adenocarcinoma #38; [2]
  Drug Deaths: 4/5
Colon adenocarcinoma #38; [3]
  Drug Deaths: 0
  Weight Loss: 1.0 g
Colon adenocarcinoma #38; mouse, in vivo, iv
  Weight Loss: 2.2 g
[1]; [4]
  Weight Loss: 1.0 g
[1]; Table 1, total doses as in E1
  Drug Deaths: 0

## CN(C)CCNc1ccc(CNS(C)(=O)=O)c2sc3ccccc3c(=O)c12.CS(=O)(=O)O [18(f), N-[[1-[[2-(Dimethylamino)ethyl]amino]-9-oxothioxanthen-4-yl]methyl]methanesulfonamide methanesulfonate]
[1]; [4]
  Weight Loss: 5.2 g
[1]; Table 1, total doses as in E1
  Drug Deaths: 2/5

## CNCc1ccc(NCCCN(C)C)c2c(=O)c3ccccc3sc12 [19(e), 1-[[3-(Dimethylamino)propyl]amino]-4-[(methylaminomethyl]thioxanthen-9-one dihydrochloride monohydrate]
[1]
  T/C: 4%
[1]; Table 1, total doses as in E1
  Drug Deaths: 0
[1]; mouse, in vivo
  Weight Loss: 3.4 g

## CNCc1ccc(NCCN(C)C)c2c(=O)c3ccccc3sc12 [20(b), 1-[[2-(Dimethylamino)ethyl]amino]-4-[(methylamino)-methyl]thioxanthen-9-onedihydrochloride-5/4 hydrate]
[1]
  T/C: 10%
[1]; Table 1, total doses as in E1
  Drug Deaths: 0
[1]; mouse, in vivo
  Weight Loss: 0.4 g

## CN(C)CCCNc1ccc(CNS(C)(=O)=O)c2sc3ccccc3c(=O)c12 [21(c), N-[[1-[[3-(Dimethylamino)propyl]amino]-9-oxothioxanthen-4-yl]methyl]methanesulfonamide methanesulfonate·1/2 hydrate]
[1]
  T/C: 0%
[1]; Table 1, total doses as in E1
  Drug Deaths: 0
[1]; mouse, in vivo
  Weight Loss: 4.5 g

## CCN(CC)CCNc1ccc(C=Nc2ccccc2)c2sc3ccccc3c(=O)c12 [Example 1, 1-[[2-(Diethylamino)ethyl]amino]-4-(N-phenylformimidoyl)thioxanthen-9-one]
[1]
  T/C: 0%
[1]; [4]
  Weight Loss: 1.6 g
[1]; Table 1, total doses as in E1
  Drug Deaths: 0

## CCN(CC)CCNc1ccc(CNC=O)c2sc3ccccc3c(=O)c12 [Example 2, N-[[1-[[2-(Diethylamino)ethyl]amino]-9-oxothioxanthen-4-yl]methyl]formamide]
Colon adenocarcinoma #38; [2]
  Drug Deaths: 0
Colon adenocarcinoma #38; iv
  T/C: 0%
Colon adenocarcinoma #38; mouse, in vivo, iv
  Weight Loss: 2.8 g
[1]
  T/C: 0%
[1]; [4]
  Weight Loss: 2.0 g
[1]; Table 1, total doses as in E1
  Drug Deaths: 0

## CCN(CC)CCNc1ccc(CN)c2sc3ccccc3c(=O)c12 [Example 4, 4-(Aminomethyl)-1-[[2-(diethylamino)ethyl]amino]-thioxanthen-9-one]
[1]
  T/C: 0%
[1]; [4]
  Weight Loss: 0.4 g
[1]; Table 1, total doses as in E1
  Drug Deaths: 0

## CCN(CC)CCNc1ccc(C(N)=O)c2sc3ccccc3c(=O)c12 [Example 7, 1-[[2'-(Diethylamino)ethyl]amino]-9-oxothioxanthene-4-carboxamide]
Colon adenocarcinoma #38; [2]
  Drug Deaths: 0
Colon adenocarcinoma #38; mouse, in vivo, iv
  Weight Loss: 0.6 g
[1]; [4]
  Weight Loss: 3.2 g
[1]; Table 1, total doses as in E1
  Drug Deaths: 1/5

## CCN(CC)CCNc1ccc(CN(C)S(C)(=O)=O)c2sc3ccccc3c(=O)c12 [Example 8, N-[[1-[[2-(Diethylamino)ethyl)amino]-9-oxothioxanthen-yl]methyl]N-methylmethanesulfonamide]
[1]
  T/C: 0%
[1]; Table 1, total doses as in E1
  Drug Deaths: 0
[1]; mouse, in vivo
  Weight Loss: 0.8 g

## CCN(CC)CCNc1ccc(CNS(=O)(=O)c2ccccc2)c2sc3ccccc3c(=O)c12 [Example 9, N-[[1-[[2-(Diethylamino)ethyl]amino]-9-oxothioxanthen-4-yl]methyl]phenylsulfonamide]
[1]
  T/C: 8%
[1]; [4]
  Weight Loss: 1.6 g
[1]; Table 1, total doses as in E1
  Drug Deaths: 0

## CCN(CC)CCNc1ccc(CNC(=O)c2ccccc2)c2sc3ccccc3c(=O)c12 [Example 11, N-[[1-[[2-(Diethylamino)ethyl]amino]-9-oxothioxanthen-4-yl]methyl]benzamide]
Colon adenocarcinoma #38; [5]
  Drug Deaths: 0
  Weight Loss: 0.8 g
Colon adenocarcinoma #38; [6]
  Drug Deaths: 0
  Weight Loss: 0.8 g
Colon adenocarcinoma #38; [7]
  Drug Deaths: 0
  Weight Loss: 2.0 g
Colon adenocarcinoma #38; ip
  T/C: 39%
Colon adenocarcinoma #38; po
  T/C: 0%
[1]
  T/C: 0%
[1]; [4]
  Weight Loss: 0.8 g
[1]; Table 1, total doses as in E1
  Drug Deaths: 0

## CCOP(=O)(NCc1ccc(NCCN(CC)CC)c2c(=O)c3ccccc3sc12)OCC [Example 12]
[1]; [4]
  Weight Loss: 3.2 g
[1]; Table 1, total doses as in E1
  Drug Deaths: 0

## CCNCc1ccc(NCCN(CC)CC)c2c(=O)c3ccccc3sc12 [Example 14, 1-[[2-(Diethylamino)ethyl]amino]-4-[(ethylamino)-methyl]thioxanthen-9-one]
[1]
  T/C: 0%
[1]; [4]
  Weight Loss: 1.2 g
[1]; Table 1, total doses as in E1
  Drug Deaths: 0

## CCN(CC)CCNc1ccc(CN=CN(C)C)c2sc3ccccc3c(=O)c12 [Example 15, 1-[[2-(Diethylamino)]ethyl]amino]-4-(dimethylaminomethylene-aminomethyl)-thioxanthen-9-one trihydrochloride]
[1]
  T/C: 0%
[1]; Table 1, total doses as in E1
  Drug Deaths: 0
[1]; mouse, in vivo
  Weight Loss: 2.0 g

## CCN(CC)CCNc1ccc(CN(C)S(=O)(=O)CC)c2sc3ccccc3c(=O)c12.CS(=O)(=O)O [Example 22, N-[[1-[[2-(Diethylamino)ethyl]amino]-9-oxothioxanthen-4-yl]methyl]-N-methyl-ethanesulfonamide methanesulfonate]
[1]
  T/C: 0%
[1]; [4]
  Weight Loss: 3.2 g
[1]; Table 1, total doses as in E1
  Drug Deaths: 0

## CCN(CC)CCNc1ccc(CNS(=O)(=O)c2ccc(OC)cc2)c2sc3ccccc3c(=O)c12.CS(=O)(=O)O [Example 23, N-[[1-[[2-(Diethylamino)ethyl]amino]-9-oxothioxanthen-4-yl]methyl](p-methoxy)benzenesulfonamide methanesulfonate]
[1]
  T/C: 20%
[1]; [4]
  Weight Loss: 2.4 g
[1]; Table 1, total doses as in E1
  Drug Deaths: 0

## CCN(CC)CCNc1ccc(CNS(=O)(=O)CC)c2sc3ccccc3c(=O)c12.CS(=O)(=O)O [Example 24, N-[[1-[[2-(Diethylamino)ethyl]amino]-9-oxothioxanthen-4-yl]methyl]ethanesulfonamide methanesulfonate]
[1]
  T/C: 0%
[1]; [4]
  Weight Loss: 2.3 g
[1]; Table 1, total doses as in E1
  Drug Deaths: 0

## CCN(CC)CCNc1ccc(CNS(=O)(=O)c2ccc(Cl)c(Cl)c2)c2sc3ccccc3c(=O)c12 [Example 26, N-[[1-[[2-(Diethylamino)ethyl]amino]-9-oxothioxanthen-4-yl]methyl]-3,4-dichlorobenzenesulfonamide methanesulfonate·1/2 hydrate]
[1]
  T/C: 13%
[1]; Table 1, total doses as in E1
  Drug Deaths: 0
[1]; mouse, in vivo
  Weight Loss: 2.2 g

## CCN(CC)CCNc1ccc(CNS(=O)(=O)c2ccccc2F)c2sc3ccccc3c(=O)c12 [Example 27, N-[[1-[[2-(Diethylamino)ethyl]amino]-9-oxothioxanthen-4-yl]methyl]-2-fluorobenzenesulfonamide]
[1]
  T/C: 5%
[1]; [4]
  Weight Loss: +0.8 g
[1]; Table 1, total doses as in E1
  Drug Deaths: 0

## CCCN(Cc1ccc(NCCN(CC)CC)c2c(=O)c3ccccc3sc12)S(C)(=O)=O [Example 28, N-[[1-[[2-(Diethylamino)ethyl]amino]-9-oxothioxanthen-4-yl]methyl]-N-propyl-methanesulfonamide]
[1]
  T/C: 0%
[1]; [4]
  Weight Loss: 2.8 g
[1]; Table 1, total doses as in E1
  Drug Deaths: 0

## CCN(CC)CCNc1ccc(CN(C)S(=O)(=O)c2ccccc2)c2sc3ccccc3c(=O)c12.CS(=O)(=O)O [Example 29, N-[[1-[[2-(Diethylamino)ethyl]amino]-9-oxothioxanthen-4-yl]methyl]-N-methyl-benzenesulfonamide methanesulfonate]
[1]
  T/C: 6%
[1]; [4]
  Weight Loss: 2.4 g
[1]; Table 1, total doses as in E1
  Drug Deaths: 0

## CCN(CC)CCNc1ccc(CNS(C)(=O)=O)c2sc3ccc(Br)cc3c(=O)c12 [Example 33, N-[[1-[[2-(Diethylamino)ethyl]amino]-7-bromo-9-oxothioxanthen-4-yl]methyl]methanesulfonamide]
[1]
  T/C: 28%
[1]; [4]
  Weight Loss: 2.0 g
[1]; Table 1, total doses as in E1
  Drug Deaths: 0

## CCN(CC)CCNc1ccc(CNS(C)(=O)=O)c2sc3ccc(O)cc3c(=O)c12 [Example 37, N-[[1-(2-Diethylamino)ethyl]amino]-7-hydroxy-9-oxothioxanthen-4-yl]methyl]methanesulfonamide·3/4 hydrate]
[1]
  T/C: 7%
[1]; Table 1, total doses as in E1
  Drug Deaths: 0
[1]; mouse, in vivo
  Weight Loss: 0 g
